The experiment addresses T1, IRAK4 (Homo sapiens, UniProt Q9NWZ3).
T1 construct: C-terminal HiBiT-tagged Jurkat cells (polyclonal cell line or clone 8D5); endogenous in cells; host or cells: Jurkat cells (polyclonal cell line or clone 8D5), HiBiT-tagged
T1 sequence (Q9NWZ3 1-460): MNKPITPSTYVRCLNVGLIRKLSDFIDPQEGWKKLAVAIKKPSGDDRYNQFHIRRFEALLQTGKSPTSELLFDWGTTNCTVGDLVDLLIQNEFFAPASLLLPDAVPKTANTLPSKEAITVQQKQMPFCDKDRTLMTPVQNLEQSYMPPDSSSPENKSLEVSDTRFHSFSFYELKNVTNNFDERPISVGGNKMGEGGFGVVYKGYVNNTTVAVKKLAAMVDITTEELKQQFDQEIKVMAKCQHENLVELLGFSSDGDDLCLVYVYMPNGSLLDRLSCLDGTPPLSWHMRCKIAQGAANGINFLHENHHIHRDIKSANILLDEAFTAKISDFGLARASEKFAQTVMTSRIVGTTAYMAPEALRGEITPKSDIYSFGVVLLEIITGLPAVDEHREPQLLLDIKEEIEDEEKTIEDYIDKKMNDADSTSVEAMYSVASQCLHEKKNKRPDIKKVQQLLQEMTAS
Nature of the experiment: IRAK4 Degradation HiBit Assay. Type of experiment: cell-based. The conditions noted are these: C-terminal HiBiT-tagged Jurkat cells, 4 hrs incubation; for DC50: % IRAK4 remaining, four-parameter fit (IC50 used as DC50); for Dmax: from fit of % IRAK4 remaining, read-out: Dmax. The protocol: Compound dilution series (11-point, 3.16-fold dilutions in DMSO, columns 1-11 and 12-22) at 500× the final required concentrations were prepared in Labcyte LDV 384-well plates (cat. no. LP-0200) using a Labcyte Echo 550 Liquid Handler. The 500× solutions ranged from 5 mM to 0.5 μM (final assay concentration range 10 μM to 0.1 nM). Using the Echo, the 500× solutions were stamped into white, 384-well assay plates (Corning, cat. no. 3570) at 60 nL/well. The following assay plate controls were also stamped at 60 nL/well: DMSO in wells E23-P23 (NC, Negative Control, maximum signal), 5 mM solution control compound al in wells A23-D23 and M24-P24 (AC, Active Control, minimum signal/background, 10 μM final assay concentration), control compound al dilution series in wells […] (12-point, 4-fold dilutions). C-terminal HiBiT-tagged Jurkat cells (polyclonal cell line or clone 8D5) were plated at 1×10^6 cells/mL, 30 μL/well (3×10^4 cells/well) in complete RPMI (10% FBS, 1% L-glutamine). Cells were incubated for 4 hrs at 32° C./6% CO2. Compound al has the following structure:
Following incubation, 30 μL of complete Nano-Glo HiBiT Lytic Detection Reagent (Nano-Glo HiBiT Lytic Buffer with 1:50 Nano-Glo HiBiT Lytic Substrate and 1:100 LgBiT Protein; Promega cat. no. N3040) was added. Cells were further incubated for 10 min at room temperature (RT). Luminescence units (LU) were read on an EnVision plate reader (Perkin Elmer, 0.1 sec per well). Percent IRAK4 remaining per sample was calculated as follows: […]
Using Graphpad Prism, % IRAK4 remaining values were plotted as a function of compound concentration. To determine DC50 and Dmax values, resulting curves were fit to the Prism curve-fitting equation “log (inhibitor) vs response-Variable slope (four parameters)” (reported best fit value IC50 used as DC50). Table 1 summarizes the biological data of Compounds of Examples 1-137 and 142-145 obtained from the assays described herein.

From patent US12570662B2, “Substituted pyrrolo[1,2-b]pyridazines as bifunctional degraders of interleukin-1 receptor-associated kinases” (Nurix Therapeutics, Inc., priority 2021, dated 2026) come the findings set out here.

For the compound `N#Cc1cnn2c(-c3cc(NC4CCOCC4)c(-c4nnc(N5CCN(C(=O)CN6CCN(c7cc(C8CCC(=O)NC8=O)ccn7)CC6)CC5)s4)cn3)ccc2c1` (racemic) [Example 15, rac-7-[5-(5-{4-[2-(4-{4-[(3R)-2,6-dioxopiperidin-3-yl]pyridin-2-yl}piperazin-1-yl)acetyl]piperazin-1-yl}-1,3,4-thiadiazol-2-yl)-4-[(oxan-4-yl)amino]pyridin-2-yl]pyrrolo[1,2-b]pyridazine-3-carbonitrile], the DC50 turned out to be 15 nM and the Dmax worked out at 60%.

Regarding `N#Cc1cnn2c(-c3cc(NC4CCOCC4)c(-c4nnc(N5CCN(C(=O)C6CCN(c7cc(C8CCC(=O)NC8=O)ccn7)CC6)CC5)s4)cn3)ccc2c1` (racemic) [Example 16, rac-7-(5-{5-[4-(1-{4-[(3R)-2,6-dioxopiperidin-3-yl]pyridin-2-yl}piperidine-4-carbonyl)piperazin-1-yl]-1,3,4-thiadiazol-2-yl}-4-[(oxan-4-yl)amino]pyridin-2-yl)pyrrolo[1,2-b]pyridazine-3-carbonitrile], the 50% degradation concentration (DC50) came out at 26 nM and the Dmax was determined as 62%.

Take `N#Cc1cnn2c(-c3cc(NC4CCOCC4)c(-c4nnc(N5CCN(C(=O)[C@H]6CCN(c7ccc([C@@H]8CCC(=O)NC8=O)cn7)C6)CC5)s4)cn3)ccc2c1` (racemic) [Example 17, 7-[5-(5-{4-[(3RS)-1-{5-[(3RS&)-2,6-dioxopiperidin-3-yl]pyridin-2-yl}pyrrolidine-3-carbonyl]piperazin-1-yl}-1,3,4-thiadiazol-2-yl)-4-[(oxan-4-yl)amino]pyridin-2-yl]pyrrolo[1,2-b]pyridazine-3-carbonitrile]: the half-maximal degradation concentration (DC50) is 12 nM and the Dmax is 100%.

Turning to `N#Cc1cnn2c(-c3cc(NC4CCOCC4)c(-c4nnc(N5CCN(C(=O)CC6CCN(c7ccc(C8CCC(=O)NC8=O)cn7)CC6)CC5)s4)cn3)ccc2c1` (racemic) [Example 18, rac-7-[5-(5-{4-[2-(1-{5-[(3R)-2,6-dioxopiperidin-3-yl]pyridin-2-yl}piperidin-4-yl)acetyl]piperazin-1-yl}-1,3,4-thiadiazol-2-yl)-4-[(oxan-4-yl)amino]pyridin-2-yl]pyrrolo[1,2-b]pyridazine-3-carbonitrile], half-maximal degradation (DC50) was put at 12 nM and the Dmax was 103%.

For the compound `CC(C)Nc1cc(-c2ccc3cc(C#N)cnn23)ncc1-c1nnc(N2CCN(C(=O)CC3CCN(c4ccc(C5CCC(=O)NC5=O)cn4)CC3)CC2)s1` (racemic) [Example 19, rac-7-[5-(5-{4-[2-(1-{5-[(3R)-2,6-dioxopiperidin-3-yl]pyridin-2-yl}piperidin-4-yl)acetyl]piperazin-1-yl}-1,3,4-thiadiazol-2-yl)-4-[(propan-2-yl)amino]pyridin-2-yl]pyrrolo[1,2-b]pyridazine-3-carbonitrile], it took 29 nM to reach half-maximal degradation (DC50) and the Dmax turned out to be 103%.

For `CC(C)Nc1cc(-c2ccc3cc(C#N)cnn23)ncc1-c1nnc(N2CCN(C(=O)[C@@H]3CCN(c4ccc([C@H]5CCC(=O)NC5=O)cn4)C3)CC2)s1` (racemic) [Example 20, 7-[5-(5-{4-[(3RS)-1-{5-[(3RS&)-2,6-dioxopiperidin-3-yl]pyridin-2-yl}pyrrolidine-3-carbonyl]piperazin-1-yl}-1,3,4-thiadiazol-2-yl)-4-[(propan-2-yl)amino]pyridin-2-yl]pyrrolo[1,2-b]pyridazine-3-carbonitrile], the DC50 was determined as 20 nM and the Dmax came out at 98%.

As to `N#Cc1cnn2c(-c3cc(NC4CCOCC4)c(-c4nnc(C56CCC(C(=O)N7CCC(Oc8ccc(C9CCC(=O)NC9=O)cn8)CC7)(CC5)CC6)s4)cn3)ccc2c1` (racemic) [Example 21, rac-7-[5-(5-{4-[4-({5-[(3R)-2,6-dioxopiperidin-3-yl]pyridin-2-yl}oxy)piperidine-1-carbonyl]bicyclo[2.2.2]octan-1-yl}-1,3,4-thiadiazol-2-yl)-4-[(oxan-4-yl)amino]pyridin-2-yl]pyrrolo[1,2-b]pyridazine-3-carbonitrile], it took 60 nM to reach half-maximal degradation (DC50) and the Dmax stood at 91%.

Take `N#Cc1cnn2c(-c3cc(NC4CCOCC4)c(-c4nnc(C56CCC(C(=O)N7CCN(c8ccc(C9CCC(=O)NC9=O)cn8)CC7)(CC5)CC6)s4)cn3)ccc2c1` (racemic) [Example 22, rac-7-(5-{5-[4-(4-{5-[(3R)-2,6-dioxopiperidin-3-yl]pyridin-2-yl}piperazine-1-carbonyl)bicyclo[2.2.2]octan-1-yl]-1,3,4-thiadiazol-2-yl}-4-[(oxan-4-yl)amino]pyridin-2-yl)pyrrolo[1,2-b]pyridazine-3-carbonitrile]: it took 23 nM to reach half-maximal degradation (DC50) and the Dmax worked out at 84%.

Consider `N#Cc1cnn2c(-c3cc(NC4CCOCC4)c(-c4nnc(C56CCC(CN7CCC(c8ccc(C9CCC(=O)NC9=O)cn8)CC7)(CC5)CC6)s4)cn3)ccc2c1` (racemic) [Example 23, rac-7-[5-(5-{4-[(4-{5-[(3R)-2,6-dioxopiperidin-3-yl]pyridin-2-yl}piperidin-1-yl)methyl]bicyclo[2.2.2]octan-1-yl}-1,3,4-thiadiazol-2-yl)-4-[(oxan-4-yl)amino]pyridin-2-yl]pyrrolo[1,2-b]pyridazine-3-carbonitrile], for which it took 18 nM to reach half-maximal degradation (DC50) and the Dmax came out at 90%.

`N#Cc1cnn2c(-c3cc(NC4CCOCC4)c(-c4nnc(C56CCC(CN7CCC(Oc8ccc(C9CCC(=O)NC9=O)cn8)CC7)(CC5)CC6)s4)cn3)ccc2c1` (racemic) [Example 24, rac-7-{5-[5-(4-{[4-({5-[(3R)-2,6-dioxopiperidin-3-yl]pyridin-2-yl}oxy)piperidin-1-yl]methyl}bicyclo[2.2.2]octan-1-yl)-1,3,4-thiadiazol-2-yl]-4-[(oxan-4-yl)amino]pyridin-2-yl}pyrrolo[1,2-b]pyridazine-3-carbonitrile]: it took 77 nM to reach half-maximal degradation (DC50) and the Dmax stood at 83%.

Consider `CNc1cc(-c2ccc3cc(C#N)cnn23)ncc1-c1nnc(C23CCC(CN4CCN(c5ccc(C6CCC(=O)NC6=O)cn5)CC4)(CC2)CC3)s1` (racemic) [Example 25, rac-7-[5-(5-{4-[(4-{5-[(3R)-2,6-dioxopiperidin-3-yl]pyridin-2-yl}piperazin-1-yl)methyl]bicyclo[2.2.2]octan-1-yl}-1,3,4-thiadiazol-2-yl)-4-(methylamino)pyridin-2-yl]pyrrolo[1,2-b]pyridazine-3-carbonitrile], for which half-maximal degradation (DC50) was put at 53 nM and the Dmax came to 106%.

As to `N#Cc1cnn2c(-c3cc(NC4CCOCC4)c(-c4nnc(C56CCC(CN7CCN(c8ccc(C9CCC(=O)NC9=O)cn8)CC7)(CC5)CC6)s4)cn3)ccc2c1` (racemic) [Example 26, rac-7-[5-(5-{4-[(4-{5-[(3R)-2,6-dioxopiperidin-3-yl]pyridin-2-yl}piperazin-1-yl)methyl]bicyclo[2.2.2]octan-1-yl}-1,3,4-thiadiazol-2-yl)-4-[(oxan-4-yl)amino]pyridin-2-yl]pyrrolo[1,2-b]pyridazine-3-carbonitrile], the 50% degradation concentration (DC50) amounted to 120 nM and the Dmax turned out to be 80%.

Consider `CNc1cc(-c2ccc3cc(C#N)cnn23)ncc1-c1nnc(C23CCC(C(=O)N4CCN(c5ccc(C6CCC(=O)NC6=O)cn5)CC4)(CC2)CC3)s1` (racemic) [Example 27, rac-7-(5-{5-[4-(4-{5-[(3R)-2,6-dioxopiperidin-3-yl]pyridin-2-yl}piperazine-1-carbonyl)bicyclo[2.2.2]octan-1-yl]-1,3,4-thiadiazol-2-yl}-4-(methylamino)pyridin-2-yl)pyrrolo[1,2-b]pyridazine-3-carbonitrile], for which it took 12 nM to reach half-maximal degradation (DC50) and the Dmax turned out to be 101%.
